The values below are quoted from earlier work in article PMC9796293 (British Journal of Clinical Pharmacology, 2022).

The subject of the data set is monocytes.

The structures appear in SMILES notation.

For the compound `O=C(CCCCCCC(=O)Nc1ccc(CN[C@H](C(=O)OC2CCCC2)c2ccccc2)cc1)NO` [tefinostat], where the note is “Phase I study in cancer patients ref 20”, the “lowest dose that induced monocyte histone acetylation” value was 40 mg. Further, the monocytopaenia entry (clinical ref 20) is “not observed”.
